Data from patent US9956426B2, “Upconverting nanoparticles” (priority 2015, dated 2018).
Read-outs that look alike come from different tables or passages of the source.

What was measured:
HeLa cells [1] = settings: 100 μg/mL
Experimental: As a model to examine the efficacy of 5-aminolevulinic acid-conjugated upconverting particles as described herein, particles prepared as described herein (having an 80 mol % Yb content), a 3-(4,5-dimethylthiazol-2-yl)-2,5-diphenyltetrazolium bromide (MTT) proliferation assay was conducted to determine inhibition of cell proliferation using photodynamic therapy with the nanoparticles prepared as described herein. In the cell proliferation assay, HeLa cells were exposed to 5-aminolevulinic acid-conjugated upconverting particles and various controls (all 100 μg/mL) for 4 h and the cells were then irradiated by irradiation of continuous wave 980 nm light at 1 W/cm^2. The results of the assay are shown in FIG. 8, which depicts cell viability as a function of irradiation time.
Then, impact of the lanthanide-doped upconverting nanoparticles on 5-ALA-induced photodynamic therapy was evaluated. […] Cells exposed to these control nanoparticles were irradiated at a biocompatible low power density of 0.35 W/cm^2.
A 96-well microtiter plate seeded with 1×10^4 HeLa cells/well was incubated overnight at 37° C. with 5% CO2. Cells were subsequently exposed to (i) 5-aminolevulinic acid functionalized upconverting nanoparticles comprising 80 mol % ytterbium (ALA-UCNPs, 100 μg/mL), (ii) hydrazide functionalized upconverting nanoparticles (no 5-ALA) (Hyd-UCNPs, 100 μg/mL), (iii) free 5-aminolevulinic acid (ALA, 100 μg/mL) or (iv) PBS (growth medium control) and then irradiated with CW 980 nm laser diode at 1 W/cm^2 for 0, 5, 10, or 20 min. After overnight incubation, cells were labeled with 12 mM solution of MTT in PBS for 4 h. Finally, the media was aspirated and replaced with 50 μL DMSO and cell viability was quantified by formazan absorption determined by a plate reader at 540 nm.
FIG. 8: Plots showing the viability of HeLa cells irradiated with CW 980 nm light at 1 W/cm^2 power density.
FIG. 9: Plots showing the viability of HeLa cells irradiated with CW 980 nm light at 0.35 W/cm^2 power density. […]

4T1 tumors = experiment: In vivo deep tumor photodynamic therapy treatment, tumor volume; design: species or system Balb/c mice; settings: intratumoral
Experimental: In vivo testing was conducted in subcutaneous tumors grown on Balb/c mice models to evaluate the effect of photodynamic therapy treatment using the upconversion nanoparticles described herein. The tumor volume reduction effect of a red light laser ranging from ˜635-685 nm (PpIX's activation region) and 980 nm light irradiation (activation wavelength of the upconverting nanoparticles described herein) was compared at a biocompatible level of 0.5 W/cm^2.
Female Balb/c mice were purchased from Nanjing Peng Sheng Biological Technology Co. Ltd. and used under protocols approved by Soochow University Laboratory Animal Center. 4T1 cells (1×10^6) suspended in 40 μL of PBS were subcutaneously injected into the back of each female Balb/c mouse. After about 6 days, the mice bearing 4T1 tumors were treated when the tumor volume reached about 50 mm^3.
(§1) An optical fiber-coupled 980 nm high power laser diode (Hi-Tech Optoelectronics Co., Ltd. Beijing, China) was used to irradiate tumors at a power density of about 0.5 W/cm^2 for 40 min. (1 min. interval after each minute of irradiation). The tumor sizes were measured by a caliper every other day and calculated as the volume (tumor length)×(tumor width)^2/2. The body weight of mice was also measured with every tumor measurement and percent change was calculated by the formula (observed body weight)/(body weight on day 0)×100%.
FIGS. 14(a) and 14(b). FIG. 14(a): Plots of the in vivo volume of tumors exposed to various controls and ALAUCNPs with red and near-infrared irradiation (0.5 W/cm^2) in simulated deep tumors. […] Statistical significance was determined from one-way t tests; significance (*) was based on p<0.05 and p>0.05 for not significant (**) pairs. There was no statistical difference between treatments with ALA-UCNPs with no pork whether red or near infra-red light was used. […] FIG. 14(b) is a diagram of in vivo photodynamic therapy treatment with red or near infra-red light conducted inserting pork tissue between the laser and the mice tumors to simulate treatment of deep tumors.

[2] = 5-Aminolevulinic acid loading determination by HPLC; format: physicochemical; settings: HPLC of supernatants, back-calculation
Text: FT-IR spectral analysis confirmed that the conjugation of 5-ALA to the nanoparticles was via a hydrazone linkage as shown in panels (d) and (e) of FIG. 7, which show (d) full and (e) detailed spectra for polyacrylic acid-coated upconverting nanoparticles, (PAA-UCNPs), hydrazide-functionalized upconverting nanoparticles (Hyd-UCNPs) and 5-ALA-conjugated upconverting nanoparticles. On the spectrum for Poly(acrylic) acid-functionalized UCNPs (PAA-UCNPs), the peak at 1636 cm^−1 is attributed to the resonance of the carboxyl groups. […]
FT-IR spectra were recorded on a Nicolet Nexus FT-IR spectrometer, using the SMART iTR™ for ATR measurements. The upconversion photoluminescence spectra were measured by a SPEX FluoroMax®-3 spectrofluorimeter (Horiba) (spectral resolution of 1 nm, emission slit of 5 nm, and integral period of 0.1 s) excited at 980 nm using a fiber-coupled laser diode introduced to the sample chamber of the spectrofluorimeter. […] The size distribution of the samples was determined by dynamic light scattering (DLS) equipped with a Zetasizer Nano-ZS (He—Ne laser wavelength at 633 nm) and an auto-titrator (Malvern Instruments, Malvern, UK). The absorbance for the MTT experiment and the fluorescence for DCFDA staining experiment was found using a microplate reader (Molecular Devices Co., Menlo Park, Calif.). […]

HeLa cells [3] = experiment: Simulated deep-tissue photodynamic therapy, MTT assay with pork tissue between laser and cells; format: cell-based; settings: 100 μg/mL; for cell viability: CW 980 nm 1 W/cm^2, 20 min
Experimental: Photodynamic therapy of a deep-set tumor condition using the 5-aminolevulinic acid conjugated upconverting nanoparticles with an 80% ytterbium ratio was simulated by placing pieces of pork tissue of varying thickness (representing a patient's flesh) between a near infra-red laser and HeLa cells exposed to the upconverting nanoparticles, as shown in FIG. 12(a). The cells were analyzed for cell viability using an MTT assay. After 20 min. of irradiation at 1 W/cm^2, for all pork thicknesses, the cells exposed the 5-aminolevulinic acid conjugated nanoparticles as disclosed herein had cell viabilities that were reduced significant to the control hydrazide-functionalized upconverting nanoparticles (Hyd-UCNPs). In the absence of pork (0 mm), cell viability was less than 20%, in the presence of 6 mm pork, cell viability was less than 50%, and even with 12 mm pork, cell viability was still reduced to below 80% compared to the control. This establishes and validates the feasibility of using upconverting nanoparticles as a near infra-red-to-red transducer for prodrug photodynamic therapy at a deep-tissue level (up to about 1 cm or greater).
Finally, the red-emitting upconverting nanoparticle system containing an ytterbium ratio of 80% was compared with the known upconverting nanoparticle β/β core/shell red-emitting nanoparticles at a deep tissue level with a biocompatible low power density 0.35 W/cm^2 for laser irradiation. […] The 5-aminolevulinic acid conjugated nanoparticles described herein having an ytterbium ratio of 80% achieved 40% cell death even through 1.2 cm of pork. The ability of the presently-disclosed lanthanide-doped upconverting nanoparticles' to induce significant phototherapeutic effect with such low power excitation yet thick superficial tissue makes it a major step forward in photodynamic therapy materials.
FIGS. 12(a) and 12(b): FIG. 12(a) Photograph of the setup for simulated photodynamic therapy using an in vitro MTT assay. FIG. 12(b): Plots of HeLa cell viability for cells covered with 0, 6, and 12 mm pork tissue on top of the cells and irradiated with CW 980 nm light at a 1 W/cm^2 power density for 20 min.
FIG. 13: Plots of HeLa cell viability for cells covered with 0, 6, and 12 mm pork tissue on top of the cells and irradiated with CW 980 nm light at a 0.35 W/cm^2 power density for 20 min.

[4] = Body mass change of mice in in vivo PDT treatment groups; design: species or system Balb/c mice; settings: control and treatment groups, after 14 days
Experimental: as §1
FIG. 15 is a plot of body mass change of mice in in vivo PDT treatment groups with UCNP and light exposure after 14 days. […]

[5] = test system: singlet oxygen production in HeLa cells; experiment: Singlet oxygen detection by DCFDA fluorescence (imaging and plate reader); format: cell-based; settings: 100 μg/mL, CW 980 nm 1 W/cm^2, 0, 5, 10 min irradiation
Text: To investigate the mechanism of the results from the above mentioned experiments, cells were stained with 2′,7′-dichlorofluorescein diacetate (DCFDA), a fluorescent indicator for singlet oxygen generation, and imaged using fluorescence microscopy. When DCFDA diffuses into the cell it is […] into a non-fluorescent compound by cellular esterases. Reactive oxygen species (ROS) oxidize the non-fluorescent compound to 2′, 7′-dichlorofluorescein (DCF), which has bright green fluorescence. […] See images (a), (b) and (c) of FIG. 10. […] See images (d), (e) and (f) of FIG. 10. The data were corroborated by quantifying the singlet oxygen production by measuring the fluorescence intensity of the DCFDA using 96-well microtiter plate reader. Both DCFDA fluorescence imaging and microtiter plate measurement indicate effective prodrug delivery and subsequent PpIX activation by the red-emitting upconverting nanoparticles provided by the present disclosure.
Glass-bottom confocal dishes seeded with 1×10^6 HeLa cells were incubated overnight at 37° C. with 5% CO2. […]
FIGS. 10(a), 10(b), 10(c), 10(d), 10(e) and 10(f). Fluorescence microscopy images showing detection of singlet oxygen production in cells by the fluorescence of DCFDA.

[6] = Hydrodynamic size by dynamic light scattering; format: physicochemical; settings: dynamic light scattering in PBS
Experimental: Dynamic light scattering was used to determine that the hydrodynamic size of the 5-ALA-conjugated nanoparticles was about 62 nm as shown in FIG. 6.
FT-IR spectra were recorded on a Nicolet Nexus FT-IR spectrometer, using the SMART iTR™ for ATR measurements. The upconversion photoluminescence spectra were measured by a SPEX FluoroMax®-3 spectrofluorimeter (Horiba) (spectral resolution of 1 nm, emission slit of 5 nm, and integral period of 0.1 s) excited at 980 nm using a fiber-coupled laser diode introduced to the sample chamber of the spectrofluorimeter. Cells were imaged using a Nikon Eclipse TE 2000 microscope, equipped with a Nuance CCD camera capable of imaging. The light source was a fiber-coupled laser diode emitting at 980 nm, with the fiber introduced through the entrance port of the microscope. The size distribution of the samples was determined by dynamic light scattering (DLS) equipped with a Zetasizer Nano-ZS (He—Ne laser wavelength at 633 nm) and an auto-titrator (Malvern Instruments, Malvern, UK). The absorbance for the MTT experiment and the fluorescence for DCFDA staining experiment was found using a microplate reader (Molecular Devices Co., Menlo Park, Calif.). 5-ALA concentration was monitored by HPLC (Varian ProStar) for loading efficiency data.

| Substance | viability of cells (HeLa cells [1]; 4 h exposure, CW 980 nm 1 W/cm^2, 10 min irradiation) | cell death (HeLa cells [1]; CW 980 nm 0.35 W/cm^2, 20 min irradiation) | killing rate (HeLa cells [1]; CW 980 nm 1 W/cm^2, 10 min irradiation) [%] | tumor reduction, 980 nm light with 12 mm pork versus red light with 6 mm pork (4T1 tumors; 0.5 W/cm^2) | tumor volume, treatment with NIR versus red light (4T1 tumors; 0.5 W/cm^2, no pork) | tumor reduction (4T1 tumors; 980 nm 0.5 W/cm^2, 6 or 12 mm of pork tissue above the tumor) | therapeutic effect (4T1 tumors; red light irradiation 0.5 W/cm^2, pork tissue above the tumor) | loading capacity for 5-ALA [2] | cell viability (HeLa cells [3]; 6 mm pork) | cell viability (HeLa cells [3]; 12 mm pork, compared to the control) | cell viability (HeLa cells [3]; absence of pork (0 mm)) | cell death (HeLa cells [3]; through 1.2 cm of pork, CW 980 nm 0.35 W/cm^2, 20 min) [%] | body mass change [4] | DCFDA fluorescence (singlet oxygen generation) [5] | hydrodynamic size [6] | cell killing (HeLa cells [1]; CW 980 nm 0.35 W/cm^2) |
| --- | --- | --- | --- | --- | --- | --- | --- | --- | --- | --- | --- | --- | --- | --- | --- | --- |
| α-NaYF4:Yb(80%),Er(2%)@CaF2 ALA [ALA-UCNPs] | about 30% | more than 60% | ~70 | significantly more effective | no statistically significant difference | about 150 mm^3 | no noticeable therapeutic effect | about 4.5 μmol/mg | less than 50% | below 80% | less than 20% | 40 | no significant difference across the groups | intensifying DCFDA fluorescence over irradiation time | about 62 nm |  |
| β-NaYF4:Yb(20%),Er(2%)@β-NaYF4 ALA [reference compound] |  |  |  |  |  |  |  | ~4.5 µmol/mg |  |  |  |  |  |  |  | no cell killing |
